Laboratory results: patent publication US20140135310A1, “SULPHONAMIDE DERIVATIVES OF ALICYCLIC AMINES FOR THE TREATMENT OF CENTRAL NERVOUS SYSTEM DISEASES” (Adamed Sp. z o.o., priority 2011, published 2014)

Experiments:
[1] = target: dopaminergic receptors D3 (Homo sapiens, UniProt P35462); assay: Radioligand binding assay, dopaminergic D3 receptors; conditions: test compound 1×10^−6 M
In short: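 Scintillation read-out. Specific = total − nonspecific (excess cold ligand). Data as % of control specific binding / % inhibition; IC50 by Hill fit; Ki = IC50/(1+L/KD), KD from Scatchard plot.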

5-HT6 receptor = target: T1, 5-HT6 receptor (Homo sapiens, UniProt P50406); assay: Radioligand binding assay, serotoninergic 5-HT6 receptors; conditions: binding assay result in %, Table 5a;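 also: test compound at 1 µM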
T1 construct: purchased PerkinElmer
In short: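 Values are Ki from Cheng–Prusoff, taking IC50 from Hill nonlinear regression of competition curves and KD from a Scatchard plot. Specific binding was total minus binding with excess unlabelled ligand. Radioligand displacement was detected by scintillation counting, and data were also reported as percent of control specific binding.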

5-HT7 receptor = target: T2, 5-HT7 receptor (Homo sapiens, UniProt P34969); assay: Radioligand binding assay, serotoninergic 5-HT7 receptors; conditions: binding assay result in %, Table 5a;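 also: test compound at 1 µM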
T2 construct: purchased PerkinElmer
In short: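 Ki values used the Cheng–Prusoff equation, with KD from Scatchard analysis, applied to IC50 from Hill fits of human 5-HT7 radioligand competition curves. Bound radioligand was counted by scintillation, and excess unlabelled ligand set the non-specific binding.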

5-HT2A receptor = target: T3, 5-HT2A receptor (Homo sapiens, UniProt P28223); assay: Radioligand binding assay, serotoninergic 5-HT2A receptors; conditions: binding assay result in %, Table 5a
T3 construct: purchased PerkinElmer
In short: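 Competition curves from scintillation-counted specific binding (total minus binding with excess unlabelled ligand) were Hill-fitted to give IC50, converted to Ki via Cheng-Prusoff using Scatchard-derived Kd.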

[2] = target: T4, serotonin transporter (SERT) (Homo sapiens, UniProt P31645); assay: Radioligand binding assay, serotonin transporter (SERT); conditions: binding assay, test compound 1×10^−6 M
T4 construct: expressed in transfected cells; host or cells: CHO cells
In short: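 Values are derived from competition curves fitted by the Hill equation to give IC50, then converted to Ki by Cheng-Prusoff with radioligand Kd from Scatchard analysis. Specific binding equals total minus non-specific (excess cold ligand), counted by scintillation, and is also expressed as percent inhibition of control.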

[3] = target: dopaminergic receptors D2 (Homo sapiens, UniProt P14416); assay: Radioligand binding assay, dopaminergic D2 receptors; conditions: binding assay, test compound 1×10^−6 M
In short: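 Ki from Cheng–Prusoff conversion of Hill-fitted IC50 values, using the assay radioligand concentration and a Scatchard-determined KD. Specific binding, scintillation-counted, excluded signal remaining under excess unlabelled ligand.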

[4] = tested on: α1 adrenergic receptors (rat cerebral cortex); assay: Radioligand binding assay, adrenergic α1 receptors; conditions: test compound 1×10^−6 M
Text: The specific ligand binding to the receptors is defined as the difference between the total binding and the non-specific binding determined in the presence of the excess of unlabelled ligand.
The results are expressed as a percent of control specific binding ((measured specific binding/control specific binding)×100) and as a percent inhibition of control specific binding (100−((measured specific binding/control specific binding)×100)) obtained in the presence of the test compounds. The specific ligand binding to the receptors is defined as the difference between the total binding and the nonspecific binding determined in the presence of an excess of unlabelled ligand. Scintillation counting was the method of detection of ligand binding. The IC50 values (concentration causing a half-maximal inhibition of control specific binding) were determined by non-linear regression analysis of the competition curves generated with mean replicate values using Hill equation curve fitting (Y=D+[(A−D)/(1+(C/C50)nH)], where Y=specific binding, D=minimum specific binding, A=maximum specific binding, C=compound concentration, C50=IC50, and nH=slope factor). […] The inhibition constants (Ki) were calculated using the Cheng Prusoff equation (Ki=IC50/(1+(L/KD)), where L=concentration of radioligand in the assay, and KD=affinity of the radioligand for the receptor). A scatchard plot was used to determine the Kd.

[5] = target: T5, 5-HT1A receptor (rat hippocampus) (Rattus norvegicus, UniProt P19327); assay: Radioligand binding assay, serotoninergic 5-HT1A receptors; conditions: binding assay result in %, Table 5a;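 also: test compound at 1 µM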
T5 construct: hippocampus; from tissue; host or cells: rat hippocampus
T5 sequence (P19327 1-422): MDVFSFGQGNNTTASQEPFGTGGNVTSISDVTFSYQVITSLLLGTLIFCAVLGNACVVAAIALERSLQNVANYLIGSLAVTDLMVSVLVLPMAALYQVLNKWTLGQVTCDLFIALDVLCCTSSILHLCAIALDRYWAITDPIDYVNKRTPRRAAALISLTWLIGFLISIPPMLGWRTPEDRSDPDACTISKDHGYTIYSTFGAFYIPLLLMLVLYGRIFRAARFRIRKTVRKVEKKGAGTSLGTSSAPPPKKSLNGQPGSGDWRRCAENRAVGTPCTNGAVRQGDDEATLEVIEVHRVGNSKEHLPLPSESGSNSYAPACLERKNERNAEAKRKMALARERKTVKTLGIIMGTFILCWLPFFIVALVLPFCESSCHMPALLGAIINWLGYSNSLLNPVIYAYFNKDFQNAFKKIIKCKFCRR

T3 sequence (P28223 whole entry): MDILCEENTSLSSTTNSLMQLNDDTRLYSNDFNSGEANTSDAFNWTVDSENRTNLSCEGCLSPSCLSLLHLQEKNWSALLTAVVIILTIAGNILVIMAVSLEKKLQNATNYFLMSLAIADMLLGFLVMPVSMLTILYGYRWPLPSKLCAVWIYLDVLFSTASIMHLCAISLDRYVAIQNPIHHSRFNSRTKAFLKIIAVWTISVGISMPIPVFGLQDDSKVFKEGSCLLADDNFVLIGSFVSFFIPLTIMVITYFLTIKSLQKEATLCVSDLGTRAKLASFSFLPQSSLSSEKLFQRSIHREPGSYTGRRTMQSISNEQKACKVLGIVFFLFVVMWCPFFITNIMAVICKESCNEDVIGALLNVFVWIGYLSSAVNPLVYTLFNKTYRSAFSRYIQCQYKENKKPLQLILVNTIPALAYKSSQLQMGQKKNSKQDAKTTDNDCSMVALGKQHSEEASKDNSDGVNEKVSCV
T4 sequence (P31645 whole entry): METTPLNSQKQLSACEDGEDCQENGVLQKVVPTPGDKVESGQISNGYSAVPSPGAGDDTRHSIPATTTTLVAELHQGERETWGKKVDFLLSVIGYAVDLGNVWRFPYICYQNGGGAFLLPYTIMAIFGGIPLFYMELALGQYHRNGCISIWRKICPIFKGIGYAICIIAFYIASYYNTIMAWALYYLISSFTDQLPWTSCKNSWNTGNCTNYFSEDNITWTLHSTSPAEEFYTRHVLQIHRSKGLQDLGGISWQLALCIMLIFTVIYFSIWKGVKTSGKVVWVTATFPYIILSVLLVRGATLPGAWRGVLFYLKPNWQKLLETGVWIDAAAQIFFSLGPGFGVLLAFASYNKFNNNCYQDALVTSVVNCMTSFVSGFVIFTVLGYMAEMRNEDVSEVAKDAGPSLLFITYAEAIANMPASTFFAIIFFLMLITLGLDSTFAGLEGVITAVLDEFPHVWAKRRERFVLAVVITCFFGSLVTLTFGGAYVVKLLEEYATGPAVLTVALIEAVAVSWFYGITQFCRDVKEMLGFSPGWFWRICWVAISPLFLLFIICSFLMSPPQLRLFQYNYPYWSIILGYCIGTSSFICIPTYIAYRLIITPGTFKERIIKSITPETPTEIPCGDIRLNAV
T1 sequence (P50406 whole entry): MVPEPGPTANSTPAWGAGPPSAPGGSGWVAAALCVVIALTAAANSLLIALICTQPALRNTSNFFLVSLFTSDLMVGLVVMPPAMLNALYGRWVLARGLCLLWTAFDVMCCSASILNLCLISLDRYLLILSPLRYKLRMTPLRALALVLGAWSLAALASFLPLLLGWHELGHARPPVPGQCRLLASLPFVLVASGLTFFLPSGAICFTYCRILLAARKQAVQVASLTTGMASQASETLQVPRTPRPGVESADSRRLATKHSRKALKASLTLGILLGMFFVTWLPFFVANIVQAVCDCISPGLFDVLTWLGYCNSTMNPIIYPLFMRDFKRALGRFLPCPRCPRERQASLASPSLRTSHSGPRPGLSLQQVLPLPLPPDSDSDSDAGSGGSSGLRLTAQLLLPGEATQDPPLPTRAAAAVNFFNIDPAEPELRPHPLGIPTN
Sequence of dopaminergic receptors D3 (P35462 whole entry): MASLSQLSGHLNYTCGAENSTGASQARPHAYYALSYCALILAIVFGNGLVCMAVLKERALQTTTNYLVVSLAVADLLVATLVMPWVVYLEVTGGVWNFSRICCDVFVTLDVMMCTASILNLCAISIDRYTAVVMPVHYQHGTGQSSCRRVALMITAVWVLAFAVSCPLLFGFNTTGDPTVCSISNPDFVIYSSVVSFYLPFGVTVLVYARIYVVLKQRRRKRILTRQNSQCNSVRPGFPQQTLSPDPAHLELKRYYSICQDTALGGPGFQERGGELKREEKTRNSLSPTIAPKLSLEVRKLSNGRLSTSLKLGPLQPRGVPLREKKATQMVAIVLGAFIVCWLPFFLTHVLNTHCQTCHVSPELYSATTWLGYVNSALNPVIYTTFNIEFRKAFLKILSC
Sequence of dopaminergic receptors D2 (P14416 whole entry): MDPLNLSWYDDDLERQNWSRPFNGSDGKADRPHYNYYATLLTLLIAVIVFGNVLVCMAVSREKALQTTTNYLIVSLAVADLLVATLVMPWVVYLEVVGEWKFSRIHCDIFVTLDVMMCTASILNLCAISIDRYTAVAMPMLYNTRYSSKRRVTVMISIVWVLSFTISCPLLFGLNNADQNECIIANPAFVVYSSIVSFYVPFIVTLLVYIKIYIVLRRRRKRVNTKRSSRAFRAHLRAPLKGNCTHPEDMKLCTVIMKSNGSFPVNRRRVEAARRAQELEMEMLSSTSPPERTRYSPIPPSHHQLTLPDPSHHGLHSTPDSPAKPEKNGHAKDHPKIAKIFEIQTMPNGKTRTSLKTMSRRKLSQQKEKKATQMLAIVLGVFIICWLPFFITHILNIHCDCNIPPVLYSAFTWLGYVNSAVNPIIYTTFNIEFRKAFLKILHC
T2 sequence (P34969 whole entry): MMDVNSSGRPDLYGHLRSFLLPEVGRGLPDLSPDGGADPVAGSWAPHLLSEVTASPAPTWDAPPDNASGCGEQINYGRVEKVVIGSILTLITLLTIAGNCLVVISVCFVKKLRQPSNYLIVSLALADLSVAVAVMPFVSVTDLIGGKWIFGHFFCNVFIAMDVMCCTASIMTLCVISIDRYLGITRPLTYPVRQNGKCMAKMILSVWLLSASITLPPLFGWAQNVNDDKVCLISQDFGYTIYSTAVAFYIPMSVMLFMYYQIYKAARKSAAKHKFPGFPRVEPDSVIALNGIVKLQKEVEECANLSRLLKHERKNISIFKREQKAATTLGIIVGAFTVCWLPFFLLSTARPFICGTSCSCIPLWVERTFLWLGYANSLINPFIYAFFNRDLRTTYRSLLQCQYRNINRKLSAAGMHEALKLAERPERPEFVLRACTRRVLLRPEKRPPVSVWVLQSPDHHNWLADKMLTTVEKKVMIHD

Row | Compound | D3 [%] [1] [%] | 5-HT6 [%] (5-HT6 receptor) | 5-HT7 [%] (5-HT7 receptor) | 5-HT2A [%] (5-HT2A receptor) | SERT [%] [2] [%] | D2 [%] [3] [%] | α1 [%] [4] [%] | 5-HT1A [%] [5] [%] | inhibition at 1 µM [1] [%] | inhibition at 1 µM (5-HT6 receptor) [%] | inhibition at 1 µM (5-HT7 receptor) [%] | inhibition at 1 µM (5-HT2A receptor) [%] | inhibition at 1 µM [2] [%] | inhibition at 1 µM [3] [%] | inhibition at 1 µM [5] [%]
1 | O=S(=O)(NCC1CCN(CCCc2noc3cc(F)ccc23)CC1)c1ccc2ccccc2c1 [Compound 38, N-[[1-[3-(6-Fluoro-1,2-benzoxazol-3-yl)propyl]-4-piperidine]methyl]-naphthalene-2-sulphonamide] | 64 | 104 | 94 | 82 | 17 | 77 | 98 | 25 |  |  |  |  |  |  | 
2 | O=S(=O)(NCC1CN(CCOc2cccc3ccccc23)C1)c1csc2ccccc12 [Compound 171, N-[[1-[2-(1-Naphthyloxy)ethyl]azetidin-3-yl]methyl]benzothiophene-3-sulphonamide] |  |  |  |  |  |  | 50 |  | 99 | 96 | 94 | 101 | 44 | 72 | 92
3 | Cc1cccc(S(=O)(=O)NC2CCN(CCOc3cccc4c3OCCO4)C2)c1 (stereo not drawn) [Compound 97, N-[1-[2-(2,3-Dihydro-1,4-benzodioxan-8-yloxy)ethyl]pyrrolidin-3-yl]-3-methylbenzenesulphonamide] | 40 | 43 | 105 | 89 | −1 | 29 | 64 | 84 |  |  |  |  |  |  | 
4 | O=S(=O)(NCC1CCN(CCOc2cccc3ccccc23)C1)c1ccc(F)c(F)c1 (stereo not drawn) [Compound 278, 3,4-Difluoro-N-[[1-[2-(1-naphthyloxy)ethyl]pyrrolidin-3-yl]methyl]benzenesulphonamide] |  |  |  |  |  |  | 37 |  | 94 | 85 | 102 | 91 | 91 | 31 | 84
5 | O=S(=O)(NCC1CN(CCOc2cccc3ccccc23)C1)c1ccc2cc(Cl)ccc2c1 [Compound 165, 6-Chloro-N-[[1-[2-(1-naphthyloxy)ethyl]azetidin-3-yl]methyl]naphthalene-2-sulphonamide] |  |  |  |  |  |  | 15 |  | 100 | 97 | 105 | 99 | 111 | 66 | 87
6 | 3,4-Dichloro-N-[1-[3-(6-fluoro-1,2-benzoxazol-3-yl)propyl]pyrrolidin-3-yl]benzenesulphonamide [Compound 211] | 63 | 92 | 107 | 100 | 4 | 93 | 90 | 32 |  |  |  |  |  |  | 
7 | O=S(=O)(NCC1CN(CCOc2cccc3c2OCCO3)C1)c1cccc2ccccc12 [Compound 176, N-[[1-[2-(2,3-Dihydro-1,4-benzodioxin-5-yloxy)ethyl]azetidin-3-yl]methyl]-naphthalene-1-sulphonamide] |  |  |  |  |  |  | 51 |  | 8 | 14 | 87 | 35 | -2 | 21 | 98
8 | N#Cc1ccc(S(=O)(=O)NC2CCN(CCCc3noc4cc(F)ccc34)C2)cc1 (stereo not drawn) [Compound 210, 4-Cyano-N-[1-[3-(6-fluoro-1,2-benzoxazol-3-yl)propyl]pyrrolidin-3-yl]benzenesulphonamide] |  |  |  |  |  |  | 94 |  | 27 | 68 | 80 | 80 | 35 | 64 | 8
9 | O=S(=O)(NCC1CN(CCCc2c[nH]c3ccc(Cl)cc23)C1)c1ccc2ccccc2c1 [Compound 161, N-[[1-[3-(5-Chloro-1H-indol-3-yl)propyl]azetidin-3-yl]methyl]naphthalene-2-sulphonamide] |  |  |  |  |  |  | 46 |  | 75 | 87 | 83 | 88 | 66 | 84 | 86
10 | O=S(=O)(NCC1CN(CCOc2cccc3c2OCCO3)C1)c1ccc(I)cc1 [Compound 193, N-[[1-[2-(2,3-Dihydro-1,4-benzodioxin-5-yloxy)ethyl]azetidin-3-yl]methyl]-4-iodo-benzenesulphonamide] |  |  |  |  |  |  | 71 |  | 55 | 9 | 92 | 88 | 41 | 81 | 84
11 | O=S(=O)(NC1CN(CCOc2cccc3c2OCCO3)C1)c1ccc(F)cc1 [Compound 90, N-[1-[2-(2,3-Dihydro-1,4-benzodioxan-8-yloxy)ethyl]azetidin-3-yl]-4-fluoro-benzenesulphonamide] | −7 | −16 | 92 | 49 | 18 | 5 | −25 | 82 |  |  |  |  |  |  | 
12 | O=S(=O)(NCC1CN(CCOc2cccc3c2OCCO3)C1)c1cccs1 [Compound 184, N-[[1-[2-(2,3-Dihydro-1,4-benzodioxin-5-yloxy)ethyl]azetidin-3-yl]methyl]-thiophene-2-sulphonamide] |  |  |  |  |  |  | 88 |  | 39 | 20 | 89 | 76 | 1 | 24 | 71
13 | O=S(=O)(NCC1CN(CCOc2cccc3c2OCCO3)C1)c1ccc(Cl)s1 [Compound 192, 5-Chloro-N-[[1-[2-(2,3-dihydro-1,4-benzodioxin-5-yloxy)ethyl]azetidin-3-yl]methyl]thiophene-2-sulphonamide] |  |  |  |  |  |  | 88 |  | 70 | 30 | 97 | 86 | 38 | 42 | 79
14 | O=S(=O)(NC1CCN(CCCc2noc3cc(F)ccc23)C1)c1ccc(Cl)s1 (stereo not drawn) [Compound 22, 5-Chloro-N-[1-[3-(6-fluoro-1,2-benzoxazol-3-yl)propyl]pyrrolidin-3-yl]thiophene-2-sulphonamide] |  |  |  |  |  |  | 91 |  | 23 | 72 | 85 | 95 | 5 | 85 | 0
15 | O=S(=O)(NC1CCN(CCCc2noc3cc(F)ccc23)CC1)c1ccc2cc(Cl)ccc2c1 [Compound 325, 6-Chloro-N-[1-[3-(6-fluoro-1,2-benzoxazol-3-yl)propyl]-4-piperidyl]naphthalene-2-sulphonamide] |  |  |  |  |  |  | 76 |  | 59 | 72 | 89 | 92 | 21 | 91 | 80
